This note sets out measurements from ChEMBL document CHEMBL4373740, “Synthesis and biological evaluation of new MET inhibitors with 1,6-naphthyridinone scaffold” (Eur J Med Chem, 2020).

Molecules are shown by their SMILES.

Data set [1] deals with Vascular endothelial growth factor receptor 1 (Homo sapiens) (UniProt P17948). In words: Inhibition of recombinant human GST-tagged FLT1 catalytic domain (781 to 1338 residues) expressed in baculovirus expression system at 1 uM using biotin as substrate preincubated for 5 mins followed by substrate addition and measured after 30 to 60 mins in presence of ATP by HTRF assay relative to control.

Data set [2] concerns the target Vascular endothelial growth factor receptor 3 (Homo sapiens, UniProt P35916). In words: Inhibition of recombinant human GST-tagged FLT4 catalytic domain (800 to 1297 residues) expressed in baculovirus expression system using biotin as substrate preincubated for 5 mins followed by substrate addition and measured after 30 to 60 mins in presence of ATP by HTRF assay. For orientation: In TR-FRET formats the signal depends on donor and acceptor labels being close together.

Data set [3] has as its target Hepatocyte growth factor receptor (Homo sapiens, UniProt P08581). In words: Inhibition of purified recombinant MET kinase domain (unknown origin) using biotin as substrate preincubated for 5 mins followed by substrate addition and measured after 30 to 60 mins in presence of ATP by HTRF assay.
For data set [4], the target named is Tyrosine-protein kinase JAK3 (Homo sapiens) (UniProt P52333). Put plainly: Inhibition of recombinant full length human GST-tagged JAK3 expressed in baculovirus expression system at 1 uM using biotin as substrate preincubated for 5 mins followed by substrate addition and measured after 30 to 60 mins in presence of ATP by HTRF assay relative to control.
The target in data set [5] is Dual specificity tyrosine-phosphorylation-regulated kinase 4 (Homo sapiens) (UniProt Q9NR20). Put plainly: Inhibition of recombinant human GST-tagged DYRK4 expressed in baculovirus system at 1 uM using biotin as substrate preincubated for 5 mins followed by substrate addition and measured after 30 to 60 mins in presence of ATP by HTRF assay relative to control.
Data set [6] has as its target Dual specificity tyrosine-phosphorylation-regulated kinase 3 (Homo sapiens) (UniProt O43781). In words: Inhibition of recombinant human GST-tagged DYRK3 expressed in baculovirus system at 1 uM using biotin as substrate preincubated for 5 mins followed by substrate addition and measured after 30 to 60 mins in presence of ATP by HTRF assay relative to control.
The target of data set [7] is Glycogen synthase kinase-3 beta (Homo sapiens) (UniProt P49841). Put plainly: Inhibition of GSK3beta (unknown origin) at 1 uM using biotin as substrate preincubated for 5 mins followed by substrate addition and measured after 30 to 60 mins in presence of ATP by HTRF assay relative to control.
Data set [8] deals with Tyrosine-protein kinase BTK (Homo sapiens) (UniProt Q06187). In words: Inhibition of recombinant full length human His-tagged BTK expressed in baculovirus expression system at 1 uM using biotin as substrate preincubated for 5 mins followed by substrate addition and measured after 30 to 60 mins in presence of ATP by HTRF assay relative to control.
In data set [9] the target is Proto-oncogene tyrosine-protein kinase ROS (Homo sapiens) (UniProt P08922). In words: Inhibition of recombinant human GST-tagged ROS1 catalytic domain (1883 to 2347 residues) expressed in baculovirus expression system at 1 uM using biotin as substrate preincubated for 5 mins followed by substrate addition and measured after 30 to 60 mins in presence of ATP by HTRF assay relative to control.

Data set [10] addresses Mast/stem cell growth factor receptor Kit (Homo sapiens) (UniProt P10721). Put plainly: Inhibition of recombinant human N-terminal GST-tagged c-Kit (544 to end residues) expressed in baculovirus infected Sf21 insect cells at 1 uM using biotin as substrate preincubated for 5 mins followed by substrate addition and measured after 30 to 60 mins in presence of ATP by HTRF assay relative to control.

Data set [11] is described as follows: Half life in Sprague-Dawley rat at 1.0 mg/kg, iv measured for 5 min to 72 hrs by LC-MS/MS analysis. The format is ADME, organism-based. To be noted: in vivo.
The nature of another data set: in vitro. As to conditions: human, liver microsomes. On the technique in general: Microsomes from liver hold many membrane-bound enzymes, among them those of drug oxidation.
In a further data set the target is Angiopoietin-1 receptor (Homo sapiens, UniProt Q02763). Put plainly: Inhibition of recombinant human GST-tagged TEK (817 to 1101 residues) expressed in baculovirus expression system using biotin as substrate preincubated for 5 mins followed by substrate addition and measured after 30 to 60 mins in presence of ATP by HTRF assay.
Data set [12] has as its target Tyrosine-protein kinase Fgr (Homo sapiens) (UniProt P09769). In words: Inhibition of recombinant full length human His-tagged FGR expressed in baculovirus expression system at 1 uM using biotin as substrate preincubated for 5 mins followed by substrate addition and measured after 30 to 60 mins in presence of ATP by HTRF assay relative to control.
Data set [13] deals with Ephrin type-B receptor 4 (Homo sapiens) (UniProt P54760). In words: Inhibition of recombinant full length human His-tagged EPHB4 expressed in baculovirus expression system at 1 uM using biotin as substrate preincubated for 5 mins followed by substrate addition and measured after 30 to 60 mins in presence of ATP by HTRF assay relative to control.
A short description of data set [14]: Clearance in Sprague-Dawley rat at 5.0 mg/kg, ig measured for 15 min to 72 hrs by LC-MS/MS analysis. As to conditions: in vivo, po. The format is ADME, organism-based.
Data set [15] deals with Tyrosine-protein kinase receptor TYRO3 (Homo sapiens, UniProt Q06418). In words: Inhibition of recombinant human GST-tagged RSE catalytic domain (451 to 890 residues) expressed in baculovirus expression system using biotin as substrate preincubated for 5 mins followed by substrate addition and measured after 30 to 60 mins in presence of ATP by HTRF assay.
The target in data set [16] is Fibroblast growth factor receptor 1 (Homo sapiens) (UniProt P11362). In words: Inhibition of recombinant human N-terminal His-tagged FGFR1 catalytic domain (399 to 822 residues) expressed in baculovirus infected Sf21 insect cells at 1 uM using biotin as substrate preincubated for 5 mins followed by substrate addition and measured after 30 to 60 mins in presence of ATP by HTRF assay relative to control.

Data set [17] deals with Serine/threonine-protein kinase TBK1 (Homo sapiens) (UniProt Q9UHD2). Put plainly: Inhibition of recombinant full length human GST-tagged TBK1 expressed in insect cells at 1 uM using biotin as substrate preincubated for 5 mins followed by substrate addition and measured after 30 to 60 mins in presence of ATP by HTRF assay relative to control.
The target of data set [18] is High affinity nerve growth factor receptor (Homo sapiens, UniProt P04629). In words: Inhibition of recombinant human His-tagged TRKA catalytic domain (441 to 796 residues) expressed in baculovirus expression system using biotin as substrate preincubated for 5 mins followed by substrate addition and measured after 30 to 60 mins in presence of ATP by HTRF assay.
Data set [19] is described as follows: Oral bioavailability in Sprague-Dawley rat at 5.0 mg/kg, ig measured for 15 min to 72 hrs by LC-MS/MS analysis. The format is ADME, organism-based. To be noted: in vivo.
Data set [20] deals with Mitogen-activated protein kinase 9 (Homo sapiens) (UniProt P45984). In words: Inhibition of recombinant full length human His-tagged MAPK9 expressed in baculovirus expression system at 1 uM using biotin as substrate preincubated for 5 mins followed by substrate addition and measured after 30 to 60 mins in presence of ATP by HTRF assay relative to control.
Chain of Mitogen-activated protein kinase 9 (Homo sapiens) (P45984 whole entry, looked up): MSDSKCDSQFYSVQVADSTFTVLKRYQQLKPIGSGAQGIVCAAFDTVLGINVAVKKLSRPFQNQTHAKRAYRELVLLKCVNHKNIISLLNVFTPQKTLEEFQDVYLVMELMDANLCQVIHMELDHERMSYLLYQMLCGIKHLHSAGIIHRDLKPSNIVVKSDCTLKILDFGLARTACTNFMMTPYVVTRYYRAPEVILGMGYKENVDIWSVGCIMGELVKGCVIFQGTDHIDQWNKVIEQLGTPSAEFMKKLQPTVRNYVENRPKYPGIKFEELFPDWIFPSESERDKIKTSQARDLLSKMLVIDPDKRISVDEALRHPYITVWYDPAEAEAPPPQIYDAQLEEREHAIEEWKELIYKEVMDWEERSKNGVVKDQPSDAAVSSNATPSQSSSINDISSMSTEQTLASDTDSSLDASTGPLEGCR

Chain of Proto-oncogene tyrosine-protein kinase ROS (Homo sapiens) (P08922 whole entry, the tested form may be a part): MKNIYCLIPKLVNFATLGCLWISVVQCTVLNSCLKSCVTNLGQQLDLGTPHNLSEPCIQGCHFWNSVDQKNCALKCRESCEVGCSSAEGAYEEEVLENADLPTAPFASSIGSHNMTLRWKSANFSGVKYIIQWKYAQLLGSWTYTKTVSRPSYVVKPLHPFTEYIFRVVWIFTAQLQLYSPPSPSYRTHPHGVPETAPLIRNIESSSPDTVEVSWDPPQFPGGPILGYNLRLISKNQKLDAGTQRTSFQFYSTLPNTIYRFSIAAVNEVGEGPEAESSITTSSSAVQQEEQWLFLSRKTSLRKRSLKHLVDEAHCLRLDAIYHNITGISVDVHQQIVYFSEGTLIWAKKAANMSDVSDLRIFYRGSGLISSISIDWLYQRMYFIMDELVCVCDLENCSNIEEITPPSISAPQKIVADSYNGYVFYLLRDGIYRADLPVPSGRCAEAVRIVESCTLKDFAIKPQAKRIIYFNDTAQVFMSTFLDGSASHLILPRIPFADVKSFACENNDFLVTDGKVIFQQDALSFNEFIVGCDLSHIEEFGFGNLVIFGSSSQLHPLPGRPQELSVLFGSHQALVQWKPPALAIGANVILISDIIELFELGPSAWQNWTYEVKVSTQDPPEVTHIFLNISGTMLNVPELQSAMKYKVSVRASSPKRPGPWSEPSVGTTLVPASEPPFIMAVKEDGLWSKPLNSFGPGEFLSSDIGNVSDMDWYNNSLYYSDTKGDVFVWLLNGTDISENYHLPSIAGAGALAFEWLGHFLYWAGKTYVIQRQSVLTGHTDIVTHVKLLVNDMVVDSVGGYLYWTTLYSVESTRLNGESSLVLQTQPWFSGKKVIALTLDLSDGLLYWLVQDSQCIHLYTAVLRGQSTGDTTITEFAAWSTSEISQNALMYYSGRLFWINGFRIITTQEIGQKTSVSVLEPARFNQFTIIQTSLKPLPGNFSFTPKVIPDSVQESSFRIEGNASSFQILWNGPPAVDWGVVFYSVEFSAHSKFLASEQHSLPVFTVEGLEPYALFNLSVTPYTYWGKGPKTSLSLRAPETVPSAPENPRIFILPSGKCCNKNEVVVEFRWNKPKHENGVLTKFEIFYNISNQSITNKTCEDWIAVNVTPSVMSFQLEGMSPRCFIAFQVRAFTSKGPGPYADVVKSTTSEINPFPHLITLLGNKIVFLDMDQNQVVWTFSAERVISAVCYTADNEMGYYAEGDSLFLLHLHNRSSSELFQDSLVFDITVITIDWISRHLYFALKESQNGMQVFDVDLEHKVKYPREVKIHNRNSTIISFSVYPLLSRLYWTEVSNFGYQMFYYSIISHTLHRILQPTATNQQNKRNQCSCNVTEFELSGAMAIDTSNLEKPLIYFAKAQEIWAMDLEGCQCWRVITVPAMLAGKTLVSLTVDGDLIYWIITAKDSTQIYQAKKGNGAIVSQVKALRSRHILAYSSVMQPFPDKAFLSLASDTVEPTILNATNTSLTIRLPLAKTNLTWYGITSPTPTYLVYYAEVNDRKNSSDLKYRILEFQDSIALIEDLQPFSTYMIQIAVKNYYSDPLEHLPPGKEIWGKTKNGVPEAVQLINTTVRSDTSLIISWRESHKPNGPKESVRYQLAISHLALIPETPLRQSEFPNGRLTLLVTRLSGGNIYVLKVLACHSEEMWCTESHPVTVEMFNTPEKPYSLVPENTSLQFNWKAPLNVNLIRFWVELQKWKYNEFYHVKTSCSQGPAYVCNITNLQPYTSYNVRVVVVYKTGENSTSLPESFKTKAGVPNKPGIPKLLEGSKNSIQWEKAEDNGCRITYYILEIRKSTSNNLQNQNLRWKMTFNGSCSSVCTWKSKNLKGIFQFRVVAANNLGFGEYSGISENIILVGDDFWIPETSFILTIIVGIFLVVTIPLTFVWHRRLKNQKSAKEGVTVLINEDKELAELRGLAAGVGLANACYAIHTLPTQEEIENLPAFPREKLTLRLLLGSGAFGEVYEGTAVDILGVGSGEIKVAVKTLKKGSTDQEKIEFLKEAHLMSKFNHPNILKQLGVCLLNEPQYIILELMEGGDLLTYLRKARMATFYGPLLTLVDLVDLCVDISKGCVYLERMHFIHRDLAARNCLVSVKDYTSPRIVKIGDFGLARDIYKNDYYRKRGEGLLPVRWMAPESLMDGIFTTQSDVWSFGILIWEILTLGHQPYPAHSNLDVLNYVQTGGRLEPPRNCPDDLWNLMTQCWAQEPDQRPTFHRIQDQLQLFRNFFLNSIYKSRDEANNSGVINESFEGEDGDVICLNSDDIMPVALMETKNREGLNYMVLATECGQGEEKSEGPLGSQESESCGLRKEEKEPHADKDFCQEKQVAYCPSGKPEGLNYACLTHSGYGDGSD
Chain of Vascular endothelial growth factor receptor 1 (Homo sapiens) (P17948 whole entry, the tested form may be a part): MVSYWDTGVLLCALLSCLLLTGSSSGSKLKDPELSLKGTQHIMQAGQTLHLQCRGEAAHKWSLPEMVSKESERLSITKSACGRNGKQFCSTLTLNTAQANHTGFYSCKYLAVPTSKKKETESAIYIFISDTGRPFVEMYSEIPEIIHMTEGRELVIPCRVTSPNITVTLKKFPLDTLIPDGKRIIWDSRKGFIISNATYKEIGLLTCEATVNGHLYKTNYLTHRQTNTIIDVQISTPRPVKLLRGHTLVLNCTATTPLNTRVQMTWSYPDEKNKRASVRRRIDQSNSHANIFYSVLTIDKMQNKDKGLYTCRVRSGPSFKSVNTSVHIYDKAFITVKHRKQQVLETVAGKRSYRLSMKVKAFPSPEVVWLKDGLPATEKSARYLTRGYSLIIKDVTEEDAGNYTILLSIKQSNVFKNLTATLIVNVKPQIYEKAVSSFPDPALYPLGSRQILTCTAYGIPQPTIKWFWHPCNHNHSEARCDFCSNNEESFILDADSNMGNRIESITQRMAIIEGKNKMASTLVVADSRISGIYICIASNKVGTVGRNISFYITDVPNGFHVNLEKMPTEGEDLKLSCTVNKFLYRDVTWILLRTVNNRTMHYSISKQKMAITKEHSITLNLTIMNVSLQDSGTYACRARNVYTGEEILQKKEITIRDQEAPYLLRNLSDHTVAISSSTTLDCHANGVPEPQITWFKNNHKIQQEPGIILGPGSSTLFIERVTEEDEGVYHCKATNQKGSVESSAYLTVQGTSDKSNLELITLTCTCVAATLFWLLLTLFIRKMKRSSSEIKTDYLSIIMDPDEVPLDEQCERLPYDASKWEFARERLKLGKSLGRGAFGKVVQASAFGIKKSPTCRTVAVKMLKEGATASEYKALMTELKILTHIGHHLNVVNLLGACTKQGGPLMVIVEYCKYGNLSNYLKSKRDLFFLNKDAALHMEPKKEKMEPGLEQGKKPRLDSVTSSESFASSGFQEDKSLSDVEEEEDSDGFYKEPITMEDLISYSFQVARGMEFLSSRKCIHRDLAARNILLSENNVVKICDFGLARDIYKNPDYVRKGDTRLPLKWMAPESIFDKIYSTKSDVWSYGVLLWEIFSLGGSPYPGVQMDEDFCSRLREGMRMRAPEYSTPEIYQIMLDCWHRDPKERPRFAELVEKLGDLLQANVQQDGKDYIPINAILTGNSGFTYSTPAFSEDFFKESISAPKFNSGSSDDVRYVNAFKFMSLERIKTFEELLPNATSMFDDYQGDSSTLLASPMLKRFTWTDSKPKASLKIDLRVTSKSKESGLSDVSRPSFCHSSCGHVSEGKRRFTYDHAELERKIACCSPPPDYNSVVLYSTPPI
Chain of Serine/threonine-protein kinase TBK1 (Homo sapiens) (Q9UHD2 whole entry, the tested form may be a part): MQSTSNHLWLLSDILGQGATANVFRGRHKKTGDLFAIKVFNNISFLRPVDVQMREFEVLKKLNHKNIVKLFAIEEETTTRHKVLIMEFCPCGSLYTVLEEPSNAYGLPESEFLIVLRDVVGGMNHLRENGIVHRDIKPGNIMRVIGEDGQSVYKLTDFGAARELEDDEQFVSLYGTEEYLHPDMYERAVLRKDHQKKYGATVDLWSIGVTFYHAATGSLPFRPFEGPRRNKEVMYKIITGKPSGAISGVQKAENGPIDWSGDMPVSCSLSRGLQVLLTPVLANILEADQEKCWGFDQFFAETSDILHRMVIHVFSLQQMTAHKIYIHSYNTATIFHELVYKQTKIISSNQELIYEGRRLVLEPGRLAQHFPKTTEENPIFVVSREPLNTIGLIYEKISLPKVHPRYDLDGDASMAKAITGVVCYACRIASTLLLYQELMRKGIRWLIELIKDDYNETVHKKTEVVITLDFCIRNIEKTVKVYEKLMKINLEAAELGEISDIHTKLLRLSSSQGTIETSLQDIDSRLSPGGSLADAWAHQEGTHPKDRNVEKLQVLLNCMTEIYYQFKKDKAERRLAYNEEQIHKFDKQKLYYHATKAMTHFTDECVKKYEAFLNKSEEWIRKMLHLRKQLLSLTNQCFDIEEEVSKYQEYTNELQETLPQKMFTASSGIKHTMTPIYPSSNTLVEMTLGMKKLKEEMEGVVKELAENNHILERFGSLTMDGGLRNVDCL

With `Cn1cc(-c2ccc(F)cc2)c(=O)c2c(Nc3ccc(Oc4ccnc(NC(=O)C5CC5)c4)c(F)c3)nccc21`, the inhibition in data set [1], in data set [4], in data set [5], in [6], in [7] and in [8] was below 50% throughout. The inhibition in [9] is below 50%; in data set [10] it was below 50%; in data set [12], above 80%; in [13], 50 to 79%; in data set [16], below 50%; in data set [17], below 50%. Moreover, the inhibition in data set [20] was below 50%. Besides, the IC50 was found to be 591 nM in data set [2]; 7.1 nM in data set [3]; 26.3 nM on Angiopoietin-1 receptor; 41.1 nM in data set [15]; 32.9 nM in data set [18]. The results for the half-life (in [11]; in the data set “in vitro”) were 25.4 h and 14.7 h, respectively. The apparent clearance (CL/F) in [14] was 0.333 mL/min/kg. In data set [19], this compound yielded a bioavailability of 58%.

By inhibition is commonly meant the drop in the measured response relative to a control, in per cent. The IC50 is the concentration at which inhibition is half-maximal. One may read the half-life as the time in which the quantity being followed falls by half. A higher half-life goes with slow decline. The CL/F is clearance divided by bioavailability, as obtained after extravascular dosing. Usually bioavailability stands for the share of a dose that reaches the circulation, judged against a reference dose that is usually intravenous.
